Laboratory results as given in publication PMC5926251 (Japanese Journal of Cancer Research : Gann, 2000).
In brackets after ≈: the same amount, converted by molar mass. Several values for one entry are separate records, joined by “and”; a condition that tells them apart may be missing. Equal values may be shown once. Read-outs that look alike come from different tables or passages of the source.

Columns and labels:
[1] = target: DNA polymerase β (Rattus norvegicus, UniProt P06766); test: DNA polymerase assay, pol. β; assay type: biochemical; conditions: for MIC Pol. β: Minimum inhibitory concentration: dose that resulted in inhibition of 80% or more of the activity
[2] = target: T1, DNA polymerase α (Bos taurus, UniProt A0AAA9TD94); test: DNA polymerase assay, pol. α; assay type: biochemical, calf; conditions: Table I; for IC50: 50%-inhibitory concentration; for MIC Pol. α: Minimum inhibitory concentration: dose that resulted in inhibition of 80% or more of the activity
T1 sequence (A0AAA9TD94 1-1441): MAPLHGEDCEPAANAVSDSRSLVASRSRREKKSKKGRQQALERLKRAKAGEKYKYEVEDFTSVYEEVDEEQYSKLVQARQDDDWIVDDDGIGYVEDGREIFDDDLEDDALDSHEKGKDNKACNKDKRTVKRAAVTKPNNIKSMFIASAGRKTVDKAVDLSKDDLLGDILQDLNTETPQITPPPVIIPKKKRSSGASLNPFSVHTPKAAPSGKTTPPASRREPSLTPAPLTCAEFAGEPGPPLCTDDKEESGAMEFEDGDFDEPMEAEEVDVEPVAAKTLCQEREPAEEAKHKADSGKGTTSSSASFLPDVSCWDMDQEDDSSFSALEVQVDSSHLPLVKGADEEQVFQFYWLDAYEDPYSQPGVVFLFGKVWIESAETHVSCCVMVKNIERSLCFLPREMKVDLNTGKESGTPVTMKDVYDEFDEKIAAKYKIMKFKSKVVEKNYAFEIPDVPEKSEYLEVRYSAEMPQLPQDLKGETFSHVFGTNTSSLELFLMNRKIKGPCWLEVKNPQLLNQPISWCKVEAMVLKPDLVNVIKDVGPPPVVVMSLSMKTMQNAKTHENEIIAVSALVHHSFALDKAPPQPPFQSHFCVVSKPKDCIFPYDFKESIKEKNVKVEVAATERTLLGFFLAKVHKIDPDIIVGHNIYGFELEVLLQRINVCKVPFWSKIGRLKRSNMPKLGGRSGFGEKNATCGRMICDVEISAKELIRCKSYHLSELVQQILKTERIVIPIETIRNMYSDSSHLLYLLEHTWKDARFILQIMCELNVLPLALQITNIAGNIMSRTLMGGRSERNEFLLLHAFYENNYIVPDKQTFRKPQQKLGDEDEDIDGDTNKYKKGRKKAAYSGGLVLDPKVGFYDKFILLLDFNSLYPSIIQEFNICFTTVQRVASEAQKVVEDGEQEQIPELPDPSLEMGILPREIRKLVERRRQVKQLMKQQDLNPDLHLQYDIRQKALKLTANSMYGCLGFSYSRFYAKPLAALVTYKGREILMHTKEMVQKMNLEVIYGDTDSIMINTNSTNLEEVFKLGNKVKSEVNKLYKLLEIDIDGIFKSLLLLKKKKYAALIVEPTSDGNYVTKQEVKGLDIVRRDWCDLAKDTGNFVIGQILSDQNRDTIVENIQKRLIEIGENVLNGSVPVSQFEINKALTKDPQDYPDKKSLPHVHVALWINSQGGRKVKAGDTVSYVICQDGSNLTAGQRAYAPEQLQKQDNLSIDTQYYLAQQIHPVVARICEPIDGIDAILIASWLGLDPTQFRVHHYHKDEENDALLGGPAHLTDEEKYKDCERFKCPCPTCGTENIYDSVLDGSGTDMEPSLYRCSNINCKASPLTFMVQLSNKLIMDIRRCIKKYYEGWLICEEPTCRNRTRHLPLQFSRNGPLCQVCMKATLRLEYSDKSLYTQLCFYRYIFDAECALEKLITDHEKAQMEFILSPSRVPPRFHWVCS

[3] = read-out: IC50 Pol. β, 50%-inhibitory concentration, Table I

Row | Compound | IC50 [1, 3] | MIC Pol. β ([1]; Table I) | IC50 [1] [µM] | IC50 ([2]; read-out: IC50 Pol. α) | MIC Pol. α [2] | IC50 ([2]; IC50 Pol. α)
1 | C[C@@H]1OC(O)[C@H](O)[C@H](O)[C@H]1O (some centres unmarked) [II - Rhamnose - -, Rhamnose] | > 1000 µM | – | – | > 1000 µM | – | –
2 | CCCCCCCCCCCCCCCC(=O)OC[C@@H](O)CO[C@H]1O[C@H](CS(=O)(=O)O)[C@@H](O)[C@H](O)[C@H]1O [C16--SQMG] | 34 µM and 36 µM | 43 µM and 46 µM | – | 4 µM and 5.9 µM | 9.1 µM and 14 µM | –
3 | CCCCCCCCCCCCCCCC(=O)OC[C@H](CO[C@H]1O[C@H](CS(=O)(=O)O)[C@@H](O)[C@H](O)[C@H]1O)OC(=O)CCCCCCCCCCCCCCC [C16--SQDG] | 25 µM | 45 µM and 46 µM | – | – | 3.4 µM and 3.6 µM | –
4 | O=S(=O)(O)C[C@H]1O[C@H](OCC(O)CO)[C@H](O)[C@@H](O)[C@@H]1O (some centres unmarked) [I&II&III + Quinovose + -] | > 1000 µM | – | – | > 1000 µM | – | –
5 | C[C@H](O)[C@@H](O)[C@@H](O)[C@H](O)C=O [II - Fucose - -, Fucose] | – | – | > 1000 | – | – | > 1000 µM
6 | C[C@H]1OC(OCC(O)CO)[C@H](O)[C@@H](O)[C@@H]1O (some centres unmarked) [II&III - Quinovose + -] | > 1000 µM | – | – | > 1000 µM | – | –

Continued, in another order:

Row | IC50 [1, 3] | MIC Pol. β ([1]; Table I) | IC50 [1] [µM] | Compound | IC50 ([2]; read-out: IC50 Pol. α) | MIC Pol. α [2] | IC50 ([2]; IC50 Pol. α)
7 | > 1000 µM | – | – | CCCCCCCCCCCCCC(=O)OCC(O)CO (centres unmarked) [III&IV - - + Myristic acid (14:0)/H] | 750 µM | > 1000 µM | –
8 | – | > 1000 µM | 440 | CCCCCCCCCCCCCC(=O)O [Myristic acid (14:0), Myristic acid, reference compound] | – | 180 µM (≈ 41.1 µg/mL) | 95 µM
9 | > 1000 µM | – | – | CCCCCCCCCCCCCCCCCC(=O)OCC(O)CO (centres unmarked) [III&IV - - + Stearic acid (18:0)/H] | 650 µM | > 1000 µM | –
10 | – | 250 µM (≈ 71.1 µg/mL) | 130 | CCCCCCCCCCCCCCCCCC(=O)O [Stearic acid (18:0), Stearic acid, reference compound] | – | 35 µM (≈ 9.96 µg/mL) | 12 µM and 8 µM
